One experiment addresses sLFA-1/ICAM-1 (Homo sapiens, UniProt P05107+P20701, DEL701-769). In words: sLFA-1/ICAM-1 ELISA. The note with it: sLFA-1 coated plates, 5dICAM-Fc binding, read-out: LFA/ICAM (IC50). Here is the method: (§1) sLFA-1/ICAM-1 ELISA and Mac-1/ICAM-1 ELISA
(§2) Plates were coated with either 50 μl/well of 2.0 ug/ml solution of sLFA-1 or Mac-1 receptor in divalent cation buffer (1 mM MnCI2, 0.14M NaCl, 20 mM HEPES pH 7.2) at 4° C. overnight. Two hundred fifty μl of blocking buffer (1% BSA in divalent cation buffer) was added to each well 1 hour at 37° C. Plates were washed 3 times with wash buffer (TBS/0.05% Tween-20/1 mM MnCl2). The compound to be tested was solubilized in DMSO. A series of 1:3 dilutions were performed to achieve a concentration range of 0.45 nM-3 uM. Fifty μl of binding buffer (0.5% BSA in divalent cation buffer)/1% DMSO and 50 μl of the solutions to be tested were added to the appropriate wells and incubated for 1 hour. Fifty μl of 5dICAM-Fc (27 ng/ml) was added to the appropriate wells and 50 μl binding buffer was added to non-specific binding wells and incubated for 2 hours and washed. One hundred μl of 1:4000 HRP-goat anti-huIgG was added to each well and incubated for 1 hour and washed. One hundred μl of 1:1 TMB solution was added to each well and developed for 20 min at room temperature. Color development was stopped by adding 100 μl H3PO4 to each well. Absorbance was measured at 450 nm.
(In general: In an ELISA, binding on a coated surface is turned into a signal by an enzyme label.)

For a further experiment, the target named is Mac-1/ICAM-1 (Homo sapiens, UniProt P05107+P11215). In words: Mac-1/ICAM-1 ELISA. The note with it: Mac-1 receptor coated plates, 5dICAM-Fc binding. The protocol:
as §1, §2

The values that follow come from patent publication US8404859B2, “Thiazole and thiophene compounds” (Hoffmann-La Roche Inc., priority 2011, dated 2013).

Where only a bound is given, the exact number is not on record here.

Chain of Mac-1/ICAM-1 (P05107 23-769, other chains not shown): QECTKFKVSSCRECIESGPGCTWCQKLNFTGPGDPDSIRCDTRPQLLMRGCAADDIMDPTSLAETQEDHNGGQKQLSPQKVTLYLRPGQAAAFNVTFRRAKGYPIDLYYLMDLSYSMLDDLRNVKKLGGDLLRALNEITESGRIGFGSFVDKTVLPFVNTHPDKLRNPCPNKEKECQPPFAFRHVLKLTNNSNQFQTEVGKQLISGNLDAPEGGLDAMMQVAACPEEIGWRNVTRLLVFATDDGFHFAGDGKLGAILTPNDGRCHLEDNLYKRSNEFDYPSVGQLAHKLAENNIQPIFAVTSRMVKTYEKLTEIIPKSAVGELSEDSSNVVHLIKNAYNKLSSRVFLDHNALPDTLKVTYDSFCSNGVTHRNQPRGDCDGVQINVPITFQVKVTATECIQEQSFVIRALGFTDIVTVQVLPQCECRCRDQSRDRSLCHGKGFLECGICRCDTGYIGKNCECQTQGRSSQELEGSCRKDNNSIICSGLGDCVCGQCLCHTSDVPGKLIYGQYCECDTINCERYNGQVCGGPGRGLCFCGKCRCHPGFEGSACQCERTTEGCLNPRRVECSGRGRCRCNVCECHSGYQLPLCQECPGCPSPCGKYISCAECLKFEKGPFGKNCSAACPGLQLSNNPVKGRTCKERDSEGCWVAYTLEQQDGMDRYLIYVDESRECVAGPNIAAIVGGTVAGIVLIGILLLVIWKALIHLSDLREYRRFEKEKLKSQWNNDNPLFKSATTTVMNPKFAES
Chain of sLFA-1/ICAM-1 (P20701 26-1090 limits assumed, stated change not applied): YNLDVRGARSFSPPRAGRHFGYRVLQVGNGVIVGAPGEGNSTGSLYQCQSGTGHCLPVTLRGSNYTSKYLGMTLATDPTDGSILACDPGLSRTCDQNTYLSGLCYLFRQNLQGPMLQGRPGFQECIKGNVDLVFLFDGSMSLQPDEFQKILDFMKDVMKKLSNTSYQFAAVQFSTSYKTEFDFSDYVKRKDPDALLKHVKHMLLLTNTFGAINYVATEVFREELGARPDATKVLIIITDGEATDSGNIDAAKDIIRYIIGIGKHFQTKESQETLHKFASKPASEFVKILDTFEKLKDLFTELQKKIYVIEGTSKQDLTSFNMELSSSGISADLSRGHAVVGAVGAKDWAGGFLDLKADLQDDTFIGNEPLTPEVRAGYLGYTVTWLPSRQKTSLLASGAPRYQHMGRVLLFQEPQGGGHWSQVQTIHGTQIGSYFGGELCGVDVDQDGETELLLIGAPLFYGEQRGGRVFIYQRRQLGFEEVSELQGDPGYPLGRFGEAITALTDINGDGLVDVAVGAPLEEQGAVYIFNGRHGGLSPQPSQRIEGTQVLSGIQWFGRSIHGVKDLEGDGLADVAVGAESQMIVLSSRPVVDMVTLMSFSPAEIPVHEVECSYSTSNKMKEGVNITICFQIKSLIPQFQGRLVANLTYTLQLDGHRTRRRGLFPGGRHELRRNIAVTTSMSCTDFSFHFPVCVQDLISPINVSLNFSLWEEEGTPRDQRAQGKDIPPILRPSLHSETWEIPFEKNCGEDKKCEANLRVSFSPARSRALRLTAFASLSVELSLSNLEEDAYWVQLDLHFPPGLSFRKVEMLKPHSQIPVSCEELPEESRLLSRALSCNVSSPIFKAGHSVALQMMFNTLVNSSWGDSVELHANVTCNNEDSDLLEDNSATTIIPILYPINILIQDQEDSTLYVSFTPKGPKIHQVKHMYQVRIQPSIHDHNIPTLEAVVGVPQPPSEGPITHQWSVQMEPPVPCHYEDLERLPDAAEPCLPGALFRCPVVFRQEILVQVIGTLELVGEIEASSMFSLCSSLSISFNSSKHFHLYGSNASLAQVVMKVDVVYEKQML
Chain of sLFA-1/ICAM-1 (P05107 23-700 limits assumed, stated change not applied): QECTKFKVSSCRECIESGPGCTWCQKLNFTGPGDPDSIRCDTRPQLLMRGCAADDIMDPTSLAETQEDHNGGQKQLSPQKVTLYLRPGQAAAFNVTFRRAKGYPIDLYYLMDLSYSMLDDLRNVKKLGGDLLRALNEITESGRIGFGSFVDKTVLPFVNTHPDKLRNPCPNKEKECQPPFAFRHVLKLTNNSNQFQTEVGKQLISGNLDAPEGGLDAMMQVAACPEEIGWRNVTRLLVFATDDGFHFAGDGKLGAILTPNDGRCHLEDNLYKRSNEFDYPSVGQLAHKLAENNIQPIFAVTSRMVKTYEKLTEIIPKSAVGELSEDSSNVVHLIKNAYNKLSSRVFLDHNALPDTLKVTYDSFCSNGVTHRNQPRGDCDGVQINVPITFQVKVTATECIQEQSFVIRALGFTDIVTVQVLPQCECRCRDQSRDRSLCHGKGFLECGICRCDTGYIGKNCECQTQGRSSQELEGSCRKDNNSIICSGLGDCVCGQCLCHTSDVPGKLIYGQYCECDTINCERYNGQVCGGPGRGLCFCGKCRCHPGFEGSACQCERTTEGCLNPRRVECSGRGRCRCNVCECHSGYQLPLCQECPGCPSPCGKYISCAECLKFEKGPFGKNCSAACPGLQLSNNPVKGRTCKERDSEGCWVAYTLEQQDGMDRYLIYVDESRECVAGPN

With `Cc1nc(NCCc2cccc(O)c2)sc1C(=O)N[C@@H](CNC(=O)c1cc(O)cc(O)c1)C(=O)O` [Example 12, (S)-3-(3,5-Dihydroxy-benzoylamino)-2-({2-[2-(3-hydroxy-phenyl)-ethylamino]-4-methyl-thiazole-5-carbonyl}-amino)-propionic acid], the IC50 is 13 nM at sLFA-1/ICAM-1 and 27 nM at Mac-1/ICAM-1.
For `Cc1cc(C(=O)NCc2cccc3[nH]ccc23)sc1C(=O)N[C@@H](CNC(=O)c1cccs1)C(=O)O` [Example 34, (S)-2-({5-[(1H-indol-4-ylmethyl)carbamoyl]-3-methyl-thiophen-2-carbonyl}-amino)-3-[(thiophene-2-carbonyl)-amino]-propionic acid] the same measures were 516 nM and above 3000 nM.
For `Cc1cc(C(=O)NCCc2cccc(O)c2)sc1C(=O)N[C@@H](CNC(=O)c1cc(O)cc(O)c1)C(=O)O` [Example 49, (S)-3-(3,5-dihydroxy-benzoylamino)-2-([5-[2-(3-hydroxy-phenyl)-ethyl-carbamoyl]-3-methyl-thiophen-2-carbonyl]-amino)-propionic acid] the same measures were 18 nM and 207 nM.
For `CC(C)c1cc(C(=O)NCc2cccc3[nH]ncc23)sc1C(=O)N[C@@H](CNC(=O)c1cccs1)C(=O)O` [Example 60, (S)-2-([5-[(1H-Indazol-4-ylmethyl)-carbamoyl]-3-isopropyl-thiophene-2-carbonyl]-amino)-3-[(thiophene-2-carbonyl)-amino]-propionic acid] the same measures were 49 nM and 17 nM.
Consider `Cc1cc(C(=O)NCc2cccc(O)c2)sc1C(=O)N[C@@H](CNC(=O)c1cc(O)cc(O)c1)C(=O)O` [Example 38, (S)-3-(3,5-dihydroxy-benzoylamino)-2-{[5-(3-hydroxy-benzylcarbamoyl)-3-methyl-thiophen-2-carbonyl]-amino}-propionic acid], for which the IC50 at sLFA-1/ICAM-1 is 2 nM; on Mac-1/ICAM-1, 7 nM.
For `O=C(NC[C@H](NC(=O)c1sc(C(=O)NCc2cccc3[nH]ncc23)cc1Cl)C(=O)O)c1cccs1` [Example 56, (S)-2-({3-Chloro-5-[(1H-indazol-4-ylmethyl)-carbamoyl]-thiophene-2-carbonyl}-amino)-3-[(thiophene-2-carbonyl)-amino]-propionic acid] the same measures were 29 nM and 20 nM.
The corresponding values for `Cc1cc(C(=O)NCc2cccc3[nH]ncc23)sc1C(=O)N[C@@H](CNC(=O)c1cccs1)C(=O)O` [Example 36, (S)-2-({5-[(1H-indazol-4-ylmethyl)-carbamoyl]-3-methyl-thiophen-2-carbonyl}-amino)-3-[(thiophene-2-carbonyl)-amino]-propionic acid] are 24 nM and 48 nM.
As to `Cc1cc(C(=O)NCc2cccc(O)c2)sc1C(=O)N[C@@H](CNC(=O)c1ccc2[nH]cnc2c1)C(=O)O` [Example 42], the IC50 at sLFA-1/ICAM-1 was 35 nM; on Mac-1/ICAM-1 it was above 3000 nM.
`Cc1cc(C(=O)NCc2ccc(F)c(O)c2)sc1C(=O)N[C@@H](CNC(=O)c1cccs1)C(=O)O` [Example 64, (S)-2-{[5-(4-Fluoro-3-hydroxy-benzylcarbamoyl)-3-methyl-thiophene-2-carbonyl]-amino}-3-[(thiophene-2-carbonyl)-amino]-propionic acid]: the IC50 at sLFA-1/ICAM-1 is 11 nM; on Mac-1/ICAM-1, above 3000 nM.
The corresponding values for `O=C(NC[C@H](NC(=O)c1sc(C(=O)NCc2cccc3[nH]ncc23)cc1C(F)(F)F)C(=O)O)c1cccs1` [Example 58, (S)-2-({5-[(1H-Indazol-4-ylmethyl)-carbamoyl]-3-trifluoromethyl-thiophene-2-carbonyl}-amino)-3-[(thiophene-2-carbonyl)-amino]-propionic acid] are 41 nM and 55 nM.
`Cc1nc(NCCCc2cccc3[nH]ncc23)sc1C(=O)N[C@@H](CNC(=O)c1cccs1)C(=O)O` [Example 17, (S)-2-([2-[3-(1H-Indazol-4-yl)-propylamino]-4-methyl-thiazole-5-carbonyl]-amino)-3-[(thiophene-2-carbonyl)-amino]-propionic acid]: the results for the IC50 at sLFA-1/ICAM-1 and on Mac-1/ICAM-1 were 223 nM and 294 nM, respectively.
For `Cc1cc(C(=O)NCc2cccc(O)c2)sc1C(=O)N[C@@H](CNC(=O)c1cccc(O)c1)C(=O)O` [Example 40] the same measures were 2 nM and 23 nM.
The corresponding values for `Cc1nc(NC(=O)Cc2cccc(O)c2)sc1C(=O)N[C@@H](CNC(=O)c1ccsc1)C(=O)O` [Example 7, (S)-2-({2-[2-(3-Hydroxy-phenyl)-acetylamino]-4-methyl-thiazole-5-carbonyl}-amino)-3-[(thiophene-3-carbonyl)-amino]-propionic acid] are 5 nM and 30 nM.
Turning to `Cc1cc(C(=O)NCc2cccc3c2CC(=O)N3)sc1C(=O)N[C@@H](CNC(=O)c1cccs1)C(=O)O` [Example 35, (S)-2-({3-methyl-5-[(2-oxo-2,3-dihydro-11′-indol-4-ylmethyl)carbamoyl]-thiophen-2-carbonyl}-amino)-3-[(thiophene-2-carbonyl)-amino]-propionic acid], the IC50 at sLFA-1/ICAM-1 is 671 nM; at Mac-1/ICAM-1, above 3000 nM.
For `Cc1nc(OCCCc2cccc(O)c2)sc1C(=O)N[C@@H](CNC(=O)c1cccs1)C(=O)O` [Example 13, (S)-2-({2-[3-(3-Hydroxy-phenyl)-propoxy]-4-methyl-thiazole-5-carbonyl}-amino)-3-[(thiophene-2-carbonyl)-amino]-propionic acid] the same measures were 52 nM and above 3000 nM.
For `O=C1Cc2c(CNC(=O)c3cc(C(F)(F)F)c(C(=O)N[C@@H](CNC(=O)c4cccs4)C(=O)O)s3)cccc2N1` [Example 51, (S)-2-({5-[(2-oxo-2,3-dihydro-1H-indol-4-ylmethyl)-carbamoyl]-3-trifluoromethyl-thiophene-2-carbonyl}-amino)-3-[(thiophene-2-carbonyl)-amino]-propionic acid] the same measures were 164 nM and above 3000 nM.
For the compound `CCc1cc(C(=O)NCc2cccc(O)c2)sc1C(=O)N[C@@H](CNC(=O)c1cccs1)C(=O)O` [Example 61, (S)-2-{[3-Ethyl-5-(3-hydroxy-benzylcarbamoyl)-thiophene-2-carbonyl]-amino}-3-[(thiophene-2-carbonyl)-amino]-propionic acid], the IC50 came out at 16 nM on sLFA-1/ICAM-1 and 31 nM at Mac-1/ICAM-1.
As to `Cc1nc(NC(=O)Cc2cccc(O)c2)sc1C(=O)N[C@@H](CNC(=O)c1cccs1)C(=O)O` [Example 2, (S)-2-({2-[2-(3-Hydroxy-phenyl)-acetylamino]-4-methyl-thiazole-5-carbonyl}-amino)-3-[(thiophene-2-carbonyl)-amino]-propionic acid], the IC50 was 4 nM at sLFA-1/ICAM-1 and 58 nM at Mac-1/ICAM-1.
In the case of `O=C(NC[C@H](NC(=O)c1sc(C(=O)NCc2cccc3[nH]ccc23)cc1C(F)(F)F)C(=O)O)c1cccs1` [Example 50, (S)-2-({5-[(1H-Indol-4-ylmethyl)-carbamoyl]-3-trifluoromethyl-thiophene-2-carbonyl}-amino)-3-[(thiophene-2-carbonyl)-amino]-propionic acid], the IC50 at sLFA-1/ICAM-1 is 344 nM; at Mac-1/ICAM-1 it was above 3000 nM.
The corresponding values for `Cc1nc(NC(=O)Cc2cccc3[nH]ncc23)sc1C(=O)N[C@@H](CNC(=O)c1cc(O)cc(O)c1)C(=O)O` [Example 15, (S)-3-(3,5-Dihydroxy-benzoylamino)-2-{[2-(2-1H-indazol-4-yl-acetylamino)-4-methyl-thiazole-5-carbonyl}-amino]-propionic acid] are 3 nM and 12 nM.
The corresponding values for `O=C(Cc1cccc(O)c1)Nc1nc(C(F)(F)F)c(C(=O)N[C@@H](CNC(=O)c2cccs2)C(=O)O)s1` [Example 9, (S)-2-([2-[2-(3-Hydroxy-phenyl)-acetylamino]-4-trifluoromethyl-thiazole-5-carbonyl]-amino)-3-[(thiophene-2-carbonyl)-amino]-propionic acid] are 30 nM and 82 nM.
The corresponding values for `O=C(NC[C@H](NC(=O)c1sc(C(=O)NCc2cccc(O)c2)cc1C(F)(F)F)C(=O)O)c1cccs1` [Example 52, (S)-2-{[5-(3-Hydroxy-benzylcarbamoyl)-3-trifluoromethyl-thiophene-2-carbonyl]-amino}-3-[(thiophene-2-carbonyl)-amino]-propionic acid] are 31 nM and 115 nM.
Turning to `Cc1cc(C(=O)NCc2cccc(O)c2)sc1C(=O)N[C@@H](CNC(=O)c1cccs1)C(=O)O` [Example 32, (S)-2-{[5-(3-hydroxy-benzylcarbamoyl)-3-methyl-thiophen-2-carbonyl]-amino}-3-[(thiophene-2-carbonyl)-amino]-propionic acid], the IC50 at sLFA-1/ICAM-1 stood at 19 nM; at Mac-1/ICAM-1, 94 nM.
